# According to PubChem BioAssay (NCI):
#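 Values below derive from 48-hour exposures of cells grown in 96-well plates, with endpoints linearly interpolated between the two concentrations bracketing the appropriate inhibition level. GI50 marks 50% less growth. TGI is the concentration that stops growth completely.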
# Assays:
# Assay in all cases: growth of human tumour cells (NCI), 48 h
# 786-0 renal = tested on: 786-0 renal
# OVCAR-8 ovarian = tested on: OVCAR-8 ovarian
# SK-MEL-2 melanoma = tested on: SK-MEL-2 melanoma
# A498 renal = tested on: A498 renal
# CCRF-CEM leukemia = tested on: CCRF-CEM leukemia
# RXF 393 renal = tested on: RXF 393 renal
# LOX IMVI melanoma = tested on: LOX IMVI melanoma
# MDA-MB-231 breast = tested on: MDA-MB-231 breast
# UACC-62 melanoma = tested on: UACC-62 melanoma
# HOP-92 NSCLC = tested on: HOP-92 NSCLC
# M14 melanoma = tested on: M14 melanoma
# CAKI-1 renal = tested on: CAKI-1 renal
# ACHN renal = tested on: ACHN renal
# SN12C renal = tested on: SN12C renal
# HS 578T breast = tested on: HS 578T breast
# SK-OV-3 ovarian = tested on: SK-OV-3 ovarian
# IGROV1 ovarian = tested on: IGROV1 ovarian
# K-562 leukemia = tested on: K-562 leukemia
# HCT-15 colon = tested on: HCT-15 colon
# NCI-H226 lung = tested on: NCI-H226 lung
# SW-620 colon = tested on: SW-620 colon
# OVCAR-3 ovarian = tested on: OVCAR-3 ovarian
# MALME-3M melanoma = tested on: MALME-3M melanoma
# KM12 colon = tested on: KM12 colon
# MDA-N = tested on: MDA-N
# COLO 205 colon = tested on: COLO 205 colon
# MOLT-4 leukemia = tested on: MOLT-4 leukemia
# SK-MEL-5 melanoma = tested on: SK-MEL-5 melanoma
# DU-145 prostate = tested on: DU-145 prostate
# TK-10 renal = tested on: TK-10 renal
# HOP-62 NSCLC = tested on: HOP-62 NSCLC
# SF-268 CNS = tested on: SF-268 CNS
# MCF7 breast = tested on: MCF7 breast
# HCC-2998 colon = tested on: HCC-2998 colon
# T-47D breast = tested on: T-47D breast
# NCI-H460 lung = tested on: NCI-H460 lung
# SNB-75 CNS = tested on: SNB-75 CNS
# UACC-257 melanoma = tested on: UACC-257 melanoma
# NCI-H23 lung = tested on: NCI-H23 lung
# HCT-116 colon = tested on: HCT-116 colon
# MDA-MB-435 = tested on: MDA-MB-435
# NCI/ADR-RES ovarian = tested on: NCI/ADR-RES ovarian
# SF-539 CNS = tested on: SF-539 CNS
# U251 CNS = tested on: U251 CNS
# SNB-19 CNS = tested on: SNB-19 CNS
# RPMI-8226 leukemia = tested on: RPMI-8226 leukemia
# PC-3 prostate = tested on: PC-3 prostate
# EKVX NSCLC = tested on: EKVX NSCLC
# OVCAR-4 ovarian = tested on: OVCAR-4 ovarian
# SF-295 CNS = tested on: SF-295 CNS
# HT29 colon = tested on: HT29 colon
# BT-549 breast = tested on: BT-549 breast
# OVCAR-5 ovarian = tested on: OVCAR-5 ovarian
# UO-31 renal = tested on: UO-31 renal
# NCI-H522 lung = tested on: NCI-H522 lung
# A549 NSCLC = tested on: A549 NSCLC
# HL-60(TB) leukemia = tested on: HL-60(TB) leukemia
# SK-MEL-28 melanoma = tested on: SK-MEL-28 melanoma
compound,measurement,setting,value
O=C1C=CC(=O)C(CNc2ccc(C(=O)OC34CC5CC(CC(C5)C3)C4)cc2)=C1Br,TGI,786-0 renal,28.3 µM
same,TGI,OVCAR-8 ovarian,23.9 µM
same,TGI,SK-MEL-2 melanoma,38.2 µM
same,TGI,A498 renal,33.1 µM
same,TGI,CCRF-CEM leukemia,7.41 µM
same,TGI,RXF 393 renal,17.5 µM
same,TGI,LOX IMVI melanoma,23.4 µM
same,TGI,MDA-MB-231 breast,24.3 µM
same,TGI,UACC-62 melanoma,21.6 µM
same,TGI,HOP-92 NSCLC,12.3 µM
same,TGI,M14 melanoma,60 µM
same,TGI,CAKI-1 renal,12.5 µM
same,TGI,ACHN renal,28.4 µM
same,TGI,SN12C renal,34.1 µM
same,TGI,HS 578T breast,27.2 µM
same,TGI,SK-OV-3 ovarian,34.2 µM
same,TGI,IGROV1 ovarian,15.6 µM
same,TGI,K-562 leukemia,32.7 µM
same,TGI,HCT-15 colon,21.4 µM
same,TGI,NCI-H226 lung,32.4 µM
same,TGI,SW-620 colon,68.1 µM
same,TGI,OVCAR-3 ovarian,39.4 µM
same,TGI,MALME-3M melanoma,15.5 µM
same,TGI,KM12 colon,19.7 µM
same,TGI,MDA-N,33 µM
same,TGI,COLO 205 colon,24.1 µM
same,TGI,MOLT-4 leukemia,25.5 µM
same,TGI,SK-MEL-5 melanoma,22 µM
same,TGI,DU-145 prostate,94.8 µM
same,TGI,TK-10 renal,28.6 µM
same,TGI,HOP-62 NSCLC,62.2 µM
same,TGI,SF-268 CNS,27.4 µM
same,TGI,MCF7 breast,48.1 µM
same,TGI,HCC-2998 colon,28.3 µM
same,TGI,T-47D breast,18.5 µM
same,TGI,NCI-H460 lung,29.4 µM
same,TGI,SNB-75 CNS,19.7 µM
same,TGI,UACC-257 melanoma,29.1 µM
same,TGI,NCI-H23 lung,23.9 µM
same,TGI,HCT-116 colon,27.1 µM
same,TGI,MDA-MB-435,65.5 µM
same,TGI,NCI/ADR-RES ovarian,18.4 µM
same,TGI,SF-539 CNS,5.6 µM
same,TGI,U251 CNS,38.2 µM
same,TGI,SNB-19 CNS,35.4 µM
same,TGI,RPMI-8226 leukemia,33.4 µM
same,TGI,PC-3 prostate,19 µM
same,TGI,EKVX NSCLC,20.5 µM
same,TGI,OVCAR-4 ovarian,22.6 µM
same,TGI,SF-295 CNS,33.5 µM
same,TGI,HT29 colon,16.8 µM
same,TGI,BT-549 breast,20.5 µM
same,TGI,OVCAR-5 ovarian,38 µM
same,TGI,UO-31 renal,21.2 µM
same,TGI,NCI-H522 lung,1.44 µM
same,TGI,A549 NSCLC,49.3 µM
O=c1cc(-c2ccc3ccccc3c2)[nH]c2ncc(Cl)cc12,TGI,786-0 renal,16.8 µM
same,TGI,OVCAR-8 ovarian,22.9 µM
same,TGI,SK-MEL-2 melanoma,45.1 µM
same,TGI,A498 renal,43.1 µM
same,TGI,CCRF-CEM leukemia,56.8 µM
same,TGI,LOX IMVI melanoma,> 100 µM
same,TGI,MDA-MB-231 breast,56.2 µM
same,TGI,UACC-62 melanoma,> 100 µM
same,TGI,HOP-92 NSCLC,38.1 µM
same,TGI,M14 melanoma,> 100 µM
same,GI50,CAKI-1 renal,7.58 µM
same,TGI,CAKI-1 renal,> 100 µM
same,TGI,ACHN renal,> 100 µM
same,TGI,SN12C renal,> 100 µM
same,TGI,HS 578T breast,70.8 µM
same,TGI,SK-OV-3 ovarian,34.4 µM
same,TGI,IGROV1 ovarian,> 100 µM
same,TGI,K-562 leukemia,> 100 µM
same,TGI,HCT-15 colon,> 100 µM
same,TGI,NCI-H226 lung,> 100 µM
same,TGI,SW-620 colon,> 100 µM
same,GI50,OVCAR-3 ovarian,2.65 µM
same,TGI,OVCAR-3 ovarian,7.81 µM
same,TGI,MALME-3M melanoma,44.1 µM
same,TGI,KM12 colon,> 100 µM
same,GI50,MDA-N,1.55 µM
same,TGI,MDA-N,5.45 µM
same,GI50,HL-60(TB) leukemia,1.78 µM
same,TGI,HL-60(TB) leukemia,3.96 µM
same,TGI,COLO 205 colon,21.8 µM
same,TGI,MOLT-4 leukemia,> 100 µM
same,GI50,SK-MEL-5 melanoma,2.98 µM
same,TGI,SK-MEL-5 melanoma,> 100 µM
same,TGI,DU-145 prostate,> 100 µM
same,TGI,TK-10 renal,45.6 µM
same,TGI,HOP-62 NSCLC,29.6 µM
same,TGI,SF-268 CNS,34.4 µM
same,TGI,MCF7 breast,> 100 µM
same,TGI,HCC-2998 colon,> 100 µM
same,TGI,T-47D breast,> 100 µM
same,GI50,NCI-H460 lung,4.12 µM
same,TGI,NCI-H460 lung,> 100 µM
same,TGI,SNB-75 CNS,9.96 µM
same,TGI,SK-MEL-28 melanoma,> 100 µM
same,TGI,UACC-257 melanoma,> 100 µM
same,TGI,NCI-H23 lung,57 µM
same,GI50,HCT-116 colon,3.98 µM
same,TGI,HCT-116 colon,> 100 µM
same,GI50,MDA-MB-435,0.846 µM
same,TGI,MDA-MB-435,2.76 µM
same,TGI,NCI/ADR-RES ovarian,> 100 µM
same,TGI,SF-539 CNS,56.5 µM
same,GI50,U251 CNS,4.74 µM
same,TGI,U251 CNS,46.1 µM
same,TGI,SNB-19 CNS,51.2 µM
same,TGI,RPMI-8226 leukemia,24.5 µM
same,GI50,PC-3 prostate,3.1 µM
same,TGI,PC-3 prostate,29.1 µM
same,TGI,EKVX NSCLC,> 100 µM
same,TGI,OVCAR-4 ovarian,> 100 µM
same,GI50,SF-295 CNS,5.44 µM
same,TGI,SF-295 CNS,29 µM
same,TGI,HT29 colon,> 100 µM
same,TGI,BT-549 breast,> 100 µM
same,TGI,OVCAR-5 ovarian,> 100 µM
same,TGI,UO-31 renal,> 100 µM
same,TGI,NCI-H522 lung,36.8 µM
same,TGI,A549 NSCLC,> 100 µM
